Assay results published in the supplement of paper PMC11061612.

Key:
Assay in all cases: Bliss excess, mean over the matrix (fraction); higher = more synergy
[1] = system: TE-9 (Esophageal Squamous Cell Carcinoma)
Summary of the method: (§1)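 Bliss excess equals the observed combination effect minus the expected value EA + EB − EA·EB, where EA and EB are the effects of each agent alone. Combination Emax is the second-highest inhibition within the matrix. Inhibition was scaled from CellTiter-Glo 2.0 luminescence, with 0 set by vehicle wells and 1 by blank wells, after 72 hours of two-drug dosing of cells plated in 1536-well plates.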

[2] = system: Daoy (Other Solid Carcinomas)
Summary of the method: as §1

[3] = system: ME-1 (Acute Myeloid Leukemia)
Summary of the method: as §1

[4] = system: CCRF-CEM (T-Lymphoblastic Leukemia)
Summary of the method: as §1

[5] = system: DoTc2-4510 (Cervical Carcinoma)
Summary of the method: as §1

[6] = system: NCI-H82 (Small Cell Lung Carcinoma)
Summary of the method: as §1

[7] = system: LS-180 (Colorectal Carcinoma)
Summary of the method: as §1

[8] = system: MFE-296 (Endometrial Carcinoma)
Summary of the method: as §1

T98G (Glioblastoma) = system: T98G (Glioblastoma)
Summary of the method: as §1

[9] = system: CaR-1 (Colorectal Carcinoma)
Summary of the method: as §1

[10] = system: Calu-3 (Lung Adenocarcinoma)
Summary of the method: as §1

[11] = system: OVCA420 (Ovarian Carcinoma)
Summary of the method: as §1

ES4 (Ewing's Sarcoma) = system: ES4 (Ewing's Sarcoma)
Summary of the method: as §1

[12] = system: KYSE-520 (Esophageal Squamous Cell Carcinoma)
Summary of the method: as §1

[13] = system: HCC-78 (Lung Adenocarcinoma)
Summary of the method: as §1

[14] = system: RC-K8 (B-Cell Non-Hodgkin's Lymphoma)
Summary of the method: as §1

[15] = system: LB831-BLC (Bladder Carcinoma)
Summary of the method: as §1

HOS (Osteosarcoma) = system: HOS (Osteosarcoma)
Summary of the method: as §1

KELLY (Neuroblastoma) = system: KELLY (Neuroblastoma)
Summary of the method: as §1

[16] = system: EC-GI-10 (Esophageal Squamous Cell Carcinoma)
Summary of the method: as §1

Row | SMILES | Bliss excess [1] | Bliss excess [2] | Bliss excess [3] | Bliss excess [4] | Bliss excess [5] | Bliss excess [6] | Bliss excess [7] | Bliss excess [8] | Bliss excess (T98G (Glioblastoma)) | Bliss excess [9] | Bliss excess [10] | Bliss excess [11] | Bliss excess (ES4 (Ewing's Sarcoma)) | Bliss excess [12] | Bliss excess [13] | Bliss excess [14] | Bliss excess [15] | Bliss excess (HOS (Osteosarcoma)) | Bliss excess (KELLY (Neuroblastoma)) | Bliss excess [16]
1 | CN(CCO)CC[C@H](CSc1ccccc1)Nc1ccc(S(=O)(=O)NC(=O)c2ccc(N3CCC([C@@H](O)c4ccccc4-c4ccc(Cl)cc4)CC3)cc2)cc1S(=O)(=O)C(F)(F)F [AZD4320] + CCN(CCO)CCCOc1ccc2c(Nc3cc(CC(=O)Nc4cccc(F)c4)[nH]n3)ncnc2c1 [AZD2811] (first compound max 1 µM, 7x7, partner max 1 µM) | 0.03 | 0.0245 | 0.0068 | -0.0228 | 0.114 | 0.0891 | -0.0044 | -0.0109 | 0.0346 | -0.0753 | -0.0142 | -0.0352 | 0.0157 | -0.0505 | -0.0361 | 0.17 | 0.0234 | -0.0288 | 0.051 | 0.0532
2 | CN(CCO)CC[C@H](CSc1ccccc1)Nc1ccc(S(=O)(=O)NC(=O)c2ccc(N3CCC([C@@H](O)c4ccccc4-c4ccc(Cl)cc4)CC3)cc2)cc1S(=O)(=O)C(F)(F)F [AZD4320] + CN(C)CCCOc1ccc(-c2ccc3ncc4c(c3c2)n(C2CCOCC2)c(=O)n4C)cn1 [AZD0156] (first compound max 1 µM, 7x7, partner max 1 µM) | -0.0101 | 0.0118 | -0.0069 | 0.023 | -0.12 | 0.012 | -0.0209 | -0.0346 | -0.044 | -0.0727 | -0.0153 | -0.0206 | 0.0223 | -0.051 | -0.033 | 0.0161 | -0.0403 | -0.0317 | 0.077 | -0.0333
3 | CN(CCO)CC[C@H](CSc1ccccc1)Nc1ccc(S(=O)(=O)NC(=O)c2ccc(N3CCC([C@@H](O)c4ccccc4-c4ccc(Cl)cc4)CC3)cc2)cc1S(=O)(=O)C(F)(F)F [AZD4320] + C[C@@H]1COCCN1C2=NC(=NC(=C2)C3(CC3)[S@](=N)(=O)C)C4=C5C=CNC5=NC=C4 [AZD6738] (first compound max 1 µM, 7x7, partner max 10 µM) | 0.0198 | 0.0178 | 0.0166 | 0.0394 | -0.0202 | -0.0251 | -0.0306 | 0.0178 | -0.0468 | 0.0178 | -0.006 | 0.006 | 0.0351 | -0.0026 | -0.0564 | -0.011 | -0.0415 | 0.0111 | 0.033 | -0.0341
4 | CN(CCO)CC[C@H](CSc1ccccc1)Nc1ccc(S(=O)(=O)NC(=O)c2ccc(N3CCC([C@@H](O)c4ccccc4-c4ccc(Cl)cc4)CC3)cc2)cc1S(=O)(=O)C(F)(F)F [AZD4320] + C[C@@H](Nc1cc(F)cc(F)c1)c1cc(C(=O)N(C)C)cc2c(=O)cc(N3CCOCC3)oc12 [AZD8186] (first compound max 1 µM, 7x7, partner max 3 µM) | 0.0165 | -0.0261 | 0.0013 | 0.0013 | 0.0252 | 0.0359 | -0.0535 | 0.0075 | 0.0151 | -0.0193 | 0.002 | 0.002 | -0.0507 | -0.0712 | 0.003 | -0.015 | 0.0441 | 0.0607 | 0.029 | 0.0191
5 | CN(CCO)CC[C@H](CSc1ccccc1)Nc1ccc(S(=O)(=O)NC(=O)c2ccc(N3CCC([C@@H](O)c4ccccc4-c4ccc(Cl)cc4)CC3)cc2)cc1S(=O)(=O)C(F)(F)F [AZD4320] + Cc1cc2ncnn2cc1Nc1ncc2c(n1)n(C1CCOCC1)c(=O)n2C [AZD7648] (first compound max 1 µM, 7x7, partner max 10 µM) | -0.016 | -0.042 | 0.0237 | 0.0282 | -0.0144 | 0.012 | -0.0458 | -0.0185 | -0.0493 | -0.04 | -0.0547 | -0.0436 | 0.0147 | -0.0365 | -0.0227 | 0.0198 | 0.0041 | -0.0225 | 0.0306 | -0.0397
6 | CN(CCO)CC[C@H](CSc1ccccc1)Nc1ccc(S(=O)(=O)NC(=O)c2ccc(N3CCC([C@@H](O)c4ccccc4-c4ccc(Cl)cc4)CC3)cc2)cc1S(=O)(=O)C(F)(F)F [AZD4320] + Cn1cnc2c(F)c(Nc3ccc(Br)cc3Cl)c(C(=O)NOCCO)cc21 [Selumetinib] (first compound max 1 µM, 7x7, partner max 3 µM) | 0.0456 | 0.129 | 0.0484 | 0.0099 | -0.021 | -0.0009 | 0.0159 | -0.0178 | 0.0206 | -0.0573 | -0.0028 | 0.0225 | 0.0074 | 0.0306 | 0.0491 | 0.0467 | -0.0298 | 0.0245 | 0.0525 | 0.0802
7 | COc1nnc2ccc(N3CCC(c4ccc(OCCN5CCN(C)C(=O)[C@H]5C)cc4)CC3)nn12 [AZD5153] + C=CCn1c(=O)c2cnc(Nc3ccc(N4CCN(C)CC4)cc3)nc2n1-c1cccc(C(C)(C)O)n1 [AZD1775] (first compound max 1 µM, partner max 1 µM) | -0.0028 | -0.0196 | -0.0446 | -0.019 | -0.018 | -0.0656 | -0.049 | -0.0541 | -0.0092 | -0.0267 | -0.0678 | -0.0589 | -0.0223 | -0.0399 | -0.055 | -0.101 | -0.0157 | -0.0504 | -0.0581 | -0.0813
8 | COc1nnc2ccc(N3CCC(c4ccc(OCCN5CCN(C)C(=O)[C@H]5C)cc4)CC3)nn12 [AZD5153] + CC1(C)CCC(CN2CCN(c3ccc(C(=O)NS(=O)(=O)c4ccc(NCC5CCOCC5)c([N+](=O)[O-])c4)c(Oc4cnc5[nH]ccc5c4)c3)CC2)=C(c2ccc(Cl)cc2)C1 [Venetoclax] (first compound max 1 µM, 7x7, partner max 1 µM) | -0.0599 | -0.0568 | 0.0529 | -0.0742 | -0.0405 | -0.103 | -0.0614 | -0.0824 | -0.0115 | -0.0643 | -0.0258 | -0.0527 | -0.111 | -0.0444 | -0.0448 | -0.0587 | -0.0627 | -0.0508 | -0.0857 | -0.118
9 | COc1nnc2ccc(N3CCC(c4ccc(OCCN5CCN(C)C(=O)[C@H]5C)cc4)CC3)nn12 [AZD5153] + CCN(CCO)CCCOc1ccc2c(Nc3cc(CC(=O)Nc4cccc(F)c4)[nH]n3)ncnc2c1 [AZD2811] (first compound max 1 µM, 7x7, partner max 1 µM) | -0.0096 | -0.0369 | -0.0534 | -0.0407 | -0.0067 | -0.064 | -0.111 | -0.0264 | -0.014 | -0.0663 | -0.0303 | -0.0547 | 0.0055 | -0.0709 | -0.0314 | 0.0154 | -0.0647 | -0.0093 | -0.0406 | -0.0142
10 | COc1nnc2ccc(N3CCC(c4ccc(OCCN5CCN(C)C(=O)[C@H]5C)cc4)CC3)nn12 [AZD5153] + C[C@@H]1COCCN1C2=NC(=NC(=C2)C3(CC3)[S@](=N)(=O)C)C4=C5C=CNC5=NC=C4 [AZD6738] (first compound max 1 µM, 7x7, partner max 10 µM) | 0.0039 | -0.0356 | -0.0693 | -0.0178 | 0.0412 | -0.0906 | -0.0165 | 0.0129 | -0.0206 | 0.0411 | 0.0066 | -0.0057 | 0.0104 | -0.0009 | -0.0235 | -0.0424 | 0.0393 | -0.0413 | -0.0107 | 0.0203
11 | COc1nnc2ccc(N3CCC(c4ccc(OCCN5CCN(C)C(=O)[C@H]5C)cc4)CC3)nn12 [AZD5153] + Cc1c2c(nn1C)CSCc1cc(n(C)n1)CSc1cc(c3ccccc3c1)OCCCc1c(C(=O)O)n(C)c3c-2c(Cl)ccc13 [AZD5991] (first compound max 1 µM, 7x7, partner max 1 µM) | -0.007 | -0.0133 | -0.0162 | -0.0035 | -0.0358 | -0.0659 | -0.0279 | 0.028 | 0.0021 | -0.0548 | -0.0288 | -0.0933 | -0.0665 | -0.0457 | -0.0184 | -0.0446 | -0.0588 | 0.0009 | 0.0357 | 0.0527
12 | COc1nnc2ccc(N3CCC(c4ccc(OCCN5CCN(C)C(=O)[C@H]5C)cc4)CC3)nn12 [AZD5153] + Cn1cnc2c(F)c(Nc3ccc(Br)cc3Cl)c(C(=O)NOCCO)cc21 [Selumetinib] (first compound max 1 µM, 7x7, partner max 10 µM) | -0.0161 | -0.0253 | -0.0302 | -0.0015 | -0.0002 | -0.0771 | -0.0284 | -0.0519 | 0.0403 | 0.0208 | 0.0229 | 0.0303 | -0.0697 | 0.0018 | 0.0035 | -0.048 | -0.0446 | 0.0429 | 0.13 | 0.0858
13 | Cc1c2c(nn1C)CSCc1cc(n(C)n1)CSc1cc(c3ccccc3c1)OCCCc1c(C(=O)O)n(C)c3c-2c(Cl)ccc13 [AZD5991] + C1CN(CCC1(C(=O)N[C@@H](CCO)C2=CC=C(C=C2)Cl)N)C3=NC=NC4=C3C=CN4 [Capivasertib] (first compound max 1 µM, 7x7, partner max 3 µM) | 0.0095 | 0.0248 | 0.0415 | 0.0618 | 0.0544 | -0.008 | 0.0195 | 0.094 | -0.0178 | -0.0295 | 0.0134 | 0.0186 | 0.0162 | -0.0068 | 0.0056 | -0.03 | 0.0133 | -0.0083 | 0.0246 | 0.0589
